Earlier results, collected in patent publication US20090068264A1, “Clinical Applications of Tetrahydrobiopterin, Lipoic Acid and Their Salts and Methods of Preparing Tetrahydrobiopterin Bis-Lipoate” (ChronoRX LLC, priority 2005, published 2009).

Tested on: cerebral ischemia-reperfusion
Settings: animal studies of cerebral ischemia; after LA pretreatment; reduced from 78% without pretreatment

O=C(O)CCCCC1CCSS1 (stereo not shown) [LA, 1,2-dithiolane-3-pentanoic acid]
mortality rate during 24 hours of reperfusion: 26%
